From US20110306641A1, “NOVEL 2,6-SUBSTITUTED-3-NITROPYRIDINE DERIVATIVE, METHOD FOR PREPARING SAME, AND PHARMACEUTICAL PREPARATION INCLUDING SAME” (priority 2008, published 2011)

Tests used:
[1] = test system: Calvarial cell; test: Cytotoxicity test (MTT) in osteoblasts (calvarial cells); settings: 1 μM, 72 hours, vs vehicle control
Method: Drugs were diluted to a concentration of 2 μM in α-MEM culture media supplemented with 10% FBS. The vehicle control group was established to contain 0.2% DMSO. 100 μL/well of the diluted drugs were dispensed into 96-well plates to which osteoblasts (calvarial cells) prepared in Experimental Example 1 were then added at a density of 1.0×10^4 cells/100 μL/well. Here, the final compound concentration in the cell culture was 1 μM, and the vehicle control group contained 0.1% DMSO. The cells were cultured in a 5% CO2 inhibitorr at 37° for 72 hours. 25 μL of 3-(4,5-dimethyl-2-thiazolyl)-2,5-diphenyl-2H-tetrazolium bromide (MTT) dissolved in PBS (2 mg/mL) was added to each cell culture 4 hours before the end of culture. After completion of the reaction, the plates were centrifuged, the media were discarded, and 100 μL of formazan was added and dissolved in dimethyl sulfoxide (DMSO). Finally, the absorbance of the developed plates was measured at 540 nm. The cell viability was expressed as % concentration in comparison with the vehicle control group.

[2] = test system: osteoclastogenesis (formation of multinucleated osteoclasts); test: Osteoclastogenesis inhibition via co-culture system (bone marrow cells + osteoblasts, TRAP staining); type: cell-based, mouse; settings: Mus musculus, Osteoclast, 168 h, 7 days co-culture, vs vehicle control
Method: Osteoclastogenesis inhibitory effects of the compounds of the present invention were evaluated via a co-culture system (Reference: Endocrinology 137(1996), 2187 to 2190, E. Jimi et al.). A specific experimental method is as follows.
1) Preparation of Bone Marrow Cells and Osteoblasts
Femur and tibia were aseptically dissected from 6 to 8-week-old male ddY mice to harvest bone marrow cells by a conventional method using a syringe. In brief, tissues were removed from the dissected bone, the bone ends were cut off with scissors, and the bone marrow was isolated by pushing a medium-containing syringe (23G) against the one end of the cut bone. The isolated bone marrow was subjected to repeated piston movement of a syringe such that single cells were obtained (Reference: Endocrinology 123(1988), 2600 to 2602, Takahashi et al.). After removal of red blood cells within the bone marrow, the bone marrow cells recovered by centrifugation were placed in an α-MEM supplemented with 10% fetal bovine serum (FBS), followed by counting of nucleated cells and then were immediately used for a co-culture system.
For the preparation of osteoblasts (Calvarial cells), the cranial bone were aseptically dissected from 1 to 2-day-old neonatal ICR mice and subjected to continuous reaction with a 0.2% collagenase solution to separate osteoblasts. The cell-suspended supernatant was centrifuged to recover osteoblasts which were grown to full confluence in an α-MEM supplemented with 10% FBS and then diluted to a desired cell density for use in the experiment.
2) Osteoclastogenesis Inhibition Experiment Via Co-Culture System
As the medium used for a co-culture system, a differentiation medium with the addition of differentiation factors 1α,25-dihydroxyvitamin D3 (10^−8M) and dexamethasone (10^−8M) to α-MEM supplemented with 10% FBS was used for the induction of osteoclastogenesis. First, the compounds of the present invention dissolved in dimethyl sulfoxide (DMSO) at a concentration of 1 mM were diluted to 2 μM using the above-mentioned differentiation medium. As a vehicle control group, 0.2% (v/v) DMSO was added to the medium. 100 μL/well of each medium was added to 96-well plates. In addition, the above prepared bone marrow cells and osteoblasts were plated onto 96-well plates at a density of 1×10^5 cells/50 μL/well and 3×10^3 cells/50 μL/well, respectively. The total volume/well was 200 μL and the final compound concentration was 1 μM. The control group was 0.1% (v/v) DMSO. The cells were cultured with exchange of the culture media with fresh media containing differentiation factors and test materials (materials containing the compounds of the present invention) at an interval of 2 to 3 days.
7 days after culturing of cells, the formation of multinucleated osteoclasts was confirmed by microscopic examination, the medium was removed from the wells and then the cells were fixed in a 10% phosphate-buffered formalin solution. The degree of formation of mature osteoclasts was measured taking advantage of the characteristics of osteoclasts showing a positive reaction to a tartrate-resistant acid phosphatase (TRAP) staining solution. The TRAP staining solution was prepared in a manner such that naphthol AS-MS phosphate as a substrate and a coloring agent (Fast Red Violet LB salt) were dissolved in N,N-dimethylformamide, and a 0.1N NaHCO3 buffer solution containing 50 mM of tartaric acid was added thereto. Among the TRAP-positive cells under a light microscope, multinucleated osteoclasts having 6 to 7 nuclei were regarded as mature osteoclasts.
The degree of inhibition of osteoclastogenesis was calculated according to the following equation 1. The results are summarized in Table 2 below (Experiments were carried out for 4 wells/experimental group (n=4), and the results are given in terms of mean±standard deviation) […]

SMILES | Cell viability (%) Calvarial cell [1] [%] | inhibition at 1 µM [2] [%]
NC1CCN(c2ccc([N+](=O)[O-])c(Nc3ccc4[nH]ncc4c3)n2)CC1 [Compound 51, 2-(1H-indazol-5-yl)amino-6-[(4-amino)piperidino]-3-nitropyridine] | 73 | –
CN1CCN(Nc2ccc([N+](=O)[O-])c(Nc3ccc4[nH]ncc4c3)n2)CC1 [Compound 42, 2-(1H-indazol-5-yl)amino-6-[(4-methylpiperazin-1-yl)amino]-3-nitropyridine] | 106 | –
O=[N+]([O-])c1ccc(N2CCN(CCO)CC2)nc1Nc1ccc2[nH]ncc2c1 [Compound 15, 2-(1H-indazol-5-yl)amino-6-[4-(2-hydroxyethyl)piperazin-1-yl]-3-nitropyridine] | 90 | 98
NC1CCCCC1Nc1ccc([N+](=O)[O-])c(Nc2ccc3[nH]ncc3c2)n1 (centres unmarked) [Compound 30, 2-(1H-indazol-5-yl)amino-6-[(2-aminocyclohexyl)amino]-3-nitropyridine] | 114 | 100
C[C@@H](CO)Nc1ccc([N+](=O)[O-])c(Nc2ccc3cn[nH]c3c2)n1 [Compound 18, 2-(1H-indazol-6-yl)amino-6-[(1-(S)-methyl-2-hydroxyethyl)-amino]-3-nitropyridine] | 98 | –
O=[N+]([O-])c1ccc(N2CCNCC2)nc1Nc1ccc2cn[nH]c2c1 [Compound 38, 2-(1H-indazol-6-yl)amino-6-(piperazin-1-yl)-3-nitropyridine] | 91 | 90
O=[N+]([O-])c1ccc(NCCc2ccccn2)nc1Nc1ccc2[nH]ncc2c1 [Compound 27, 2-(1H-indazol-5-yl)amino-6-[(2-pyridyl)ethylamino]-3-nitropyridine] | 97 | 90
CC1(C)CN(c2ccc([N+](=O)[O-])c(Nc3ccc4[nH]ncc4c3)n2)CC(C)(C)N1 [Compound 13, 2-(1H-indazol-5-yl)amino-6-(2,2,6,6-tetramethylpiperazin-4-yl)-3-nitropyridine] | 94 | 88
Cc1nccn1-c1ccc([N+](=O)[O-])c(Nc2ccc3[nH]ncc3c2)n1 [Compound 2, 2-(1H-indazol-5-yl)amino-6-(2-methylimidazol-1-yl)-3-nitropyridine] | 104 | 70
O=[N+]([O-])c1ccc(N2CCC(O)CC2)nc1Nc1ccc2cn[nH]c2c1 [Compound 41, 2-(1H-indazol-6-yl)amino-6-(4-hydroxypiperidino)-3-nitropyridine] | 98 | –
Cc1cncn1-c1ccc([N+](=O)[O-])c(Nc2ccc3[nH]ncc3c2)n1 [Compound 4, 2-(1H-indazol-5-yl)amino-6-(5-methylimidazol-1-yl)-3-nitropyridine] | 101 | 67
Nc1ccc([N+](=O)[O-])c(Nc2ccc3[nH]ncc3c2)n1 [Compound 32, 2-(1H-indazol-5-yl)amino-6-amino-3-nitropyridine] | 99 | 100
O=[N+]([O-])c1ccc(NCc2ccncc2)nc1Nc1ccc2[nH]ncc2c1 [Compound 47, 2-(1H-indazol-5-yl)amino-6-[(4-pyridyl)methylamino]-3-nitropyridine] | 102 | 71
O=[N+]([O-])c1ccc(NCc2cccnc2)nc1Nc1ccc2cn[nH]c2c1 [Compound 46, 2-(1H-indazo-6-yl)amino-6-[(3-pyridyl)methylamino]-3-nitropyridine] | 99 | –
CC(C)(C)NNc1ccc([N+](=O)[O-])c(Nc2ccc3[nH]ncc3c2)n1 [Compound 43, 2-(1H-indazol-5-yl)amino-6-[(t-butylamino)amino]-3-nitropyridine] | 100 | –
O=[N+]([O-])c1ccc(NCCc2c[nH]cn2)nc1Nc1ccc2[nH]ncc2c1 [Compound 48, 2-(1H-indazol-5-yl)amino-6-[(imidazol-4-yl)ethylamino]-3-nitropyridine] | 96 | –
NCCCCNc1ccc([N+](=O)[O-])c(Nc2ccc3[nH]ncc3c2)n1 [Compound 50, 2-(1H-indazol-5-yl)amino-6-(4-amino-n-butylamino)-3-nitropyridine] | 95 | 100
C[C@@H](CO)Nc1ccc([N+](=O)[O-])c(Nc2ccc3[nH]ncc3c2)n1 [Compound 36, 2-(1H-indazol-5-yl)amino-6-[(1-(S)-methyl-2-hydroxyethyl)-amino]-3-nitropyridine] | 103 | 72
CNc1ccc([N+](=O)[O-])c(Nc2ccc3cn[nH]c3c2)n1 [Compound 31, 2-(1H-indazol-6-yl)amino-6-(methylamino)-3-nitropyridine] | 97 | –
O=[N+]([O-])c1ccc(NCCCn2ccnc2)nc1Nc1ccc2[nH]ncc2c1 [Compound 29, 2-(1H-indazol-5-yl)amino-6-[3-(imidazol-1-yl)propylamino]-3-nitropyridine] | 117 | 73
O=[N+]([O-])c1ccc(NCc2cccnc2)nc1Nc1ccc2[nH]ncc2c1 [Compound 45, 2-(1H-indazol-5-yl)amino-6-[(3-pyridyl)methylamino]-3-nitropyridine] | 103 | –
O=[N+]([O-])c1ccc(NCCN2CCOCC2)nc1Nc1ccc2cn[nH]c2c1 [Compound 28, 2-(1H-indazol-6-yl)amino-6-(2-morpholinoethylamino)-3-nitropyridine] | 104 | 74
CN1CCN(c2ccc([N+](=O)[O-])c(Nc3ccc4cn[nH]c4c3)n2)CC1 [Compound 40, 2-(1H-indazol-6-yl)amino-6-(4-methylpiperazin-1-yl)-3-nitropyridine] | 95 | –
CC1CN(c2ccc([N+](=O)[O-])c(Nc3ccc4[nH]ncc4c3)n2)CC(C)N1 (centres unmarked) [Compound 44, 2-(1H-indazol-5-yl)amino-6-(3,5-dimethylpiperazin-1-yl)-3-nitropyridine] | 96 | 90
